Data taken from patent publication US12503448B2, “Antibacterial and antiparasitic quinoxaline-2,3-diamine derivatives” (University College Cardiff Consultants Limited, priority 2019, dated 2025).
pEC50: −log10 of the molar value. Values after ≈ are worked out from the molar mass of the structure shown. Where two headings read alike, the source gives them in different places.

Experiments:
[1] = test system: S. mansoni schistosomula; assay: 72 hours schistosomula drug screen; format: cell-based, Schistosoma mansoni; conditions: for Selectivity Index Schistosomula: HepG2 CC50 over schistosomula EC50; for pEC50: Schistosoma mansoni
Experimental: Biological Screening 72 Hours Schistosomula Drug Screen […] G. Colley, […], Schistosoma mansoni: simplified method for the production of schistosomules., Exp. Parasitol. 35 (1974) 44-51. Newly transformed schistosomula were prepared for 72 hour high throughput screening (HTS) in 384-well black-sided microtiter plates (Perkin Elmer, MA, USA) as described in M. Nur-e-alam, M. Yousaf, […]. Bari, H. A. Ghabbour, […]. Ho, A. J. […], Neoclerodane Diterpenoids from […], Teucrium […]. Nat. […] The data obtained in this manner is shown in Table 1 in the columns labelled “Phenotype”, “Motility” and “Schistosomula average”.

[2] = test system: S. mansoni adult worms; assay: Adult worm drug screen (WHO scoring, WormassayGP2); format: cell-based, Schistosoma mansoni
Text: Mice (MF-1 mice, Harlan, UK), infected 7 weeks previously with 180 cercaria, were euthanised with an intraperitoneal injection of phenobarbital/heparin solution. Adult worms were recovered by perfusion of the portal system and subjected to drug screening as previously described in Padalino G, Ferla S, Brancale A, Chalmers I W, Hoffmann K F. Int J Parasitol Drugs Drug Resist. 2018 December; 8(3):559-570; in Whiteland H L, Chakroborty A, Forde-Thomas J E, Crusco A, Cookson A, Hollinshead J, Fenn C A, Bartholomew B, Holdsworth P A, Fisher M, Nash R J, Hoffmann K F. Int J Parasitol Drugs Drug Resist. 2018 December; 8(3):465-474; and in Crusco A, Bordoni C, Chakroborty A, Whatley K C L, Whiteland H, Westwell A D, Hoffmann K F. Eur J Med Chem. 2018 May 25; 152:87-100. The data obtained in this manner is shown in Table 1 in the columns labelled “Adult worm”.
Regarding the quantification of drug treatment on adult worms (e.g. decreased activity, paralysis or sluggishness), two different approaches were used, as described below. Where egg deposition was noticed, eggs were removed and counted using a Sedgewick rafter slide.
Adult worms were scored using the standardized microscopic WHO-TDR scoring system previously described by Ramirez, B., Bickle, Q., Yousif, F., Fakorede, F., Mouries, M.-A., Nwaka, S. in Schistosomes: Challenges in compound screening, Expert Opin Drug Discov. 2007 October; 2(s1): S53-61. This scoring system (0-4) identifies changes in worm movement and is defined according to the following scoring matrix: 0=no movement, 1=no movement with visible gut peristalsis, 2=minimal movement (occasional movement from anterior or posterior end of the worm), 3=slow continuous movement and 4=normal movement.
A digital image processing-based system was also used to assess parasite motility after drug treatment and is a modification of methods previously described by Marcellino C., Gut, J., Lim, K., Singh R., McKerrow, L. and Sakanari, J. WormAssay: a novel computer application for whole-plate motion-based screening of macroscopic parasites. PLoS Negl Trop Dis. 2012 January:6(1):e1494. This allowed for objective verification of the WHO method described above. The data obtained with this quantification method is shown in Table 1 in the columns labelled “Adult worm”.

[3] = test system: H3K4 methylation; assay: Histone extraction and detection of global H3K4 methylation in treated adult worms; format: cell-based, Schistosoma mansoni; conditions: sub-lethal concentration 0.0024 μM, male and female adult worms
[4] = test system: F. hepatica newly excysted juveniles (NEJs); assay: Newly excysted juveniles (NEJs) drug screen; format: cell-based, Fasciola hepatica; parameters: scale not given here; conditions: 10 μM, 72 h; higher score indicates lower worm activity
Experimental: Newly Excysted Juveniles (NEJs) Drug Screen
F. hepatica (Italian strain) metacercariae were obtained from Ridgeway Research, Gloucestershire, UK and stored at 4° C. Newly excysted juveniles (NEJs) from metacercariae were produced based on an optimisation introduced to the excystment method published by Dixon et al. and Wilson et al (Dixon, K. E., The physiology of excystment of the metacercaria of Fasciola hepática L. Parasitology, 1966, 56, 431-456.; Wilson, L. R., Good, R. T., Panaccio, M., Wijffels, G. L., Sandeman, R. M., Spithill, T. W, Fasciola hepatica: Characterization and Cloning of the Major Cathepsin B Protease Secreted by Newly Excysted Juvenile Liver Fluke. Experimental Parasitology 1998, 88, 85-94).
After excystment, NEJs were distributed into a 24 well tissue culture plate at a density of 25 parasites per well containing 1 mL of pre-warmed NEJs culture media. Compounds were added to respective wells and NEJ/compound co-cultures were incubated at 37° C. in an atmosphere containing 5% CO2 for 72 hours at a final concentration of 10 μM.
F. hepatica NEJs (25 per well) were incubated with the three compounds at a concentration of 10 μM (in 0.1% DMSO) and cultured for 72 hrs at 37° C. in an atmosphere containing 5% CO2. Control wells (25 NEJs per well) included those containing 0.1% DMSO (solvent) and RMPI (media) as negative controls or 10 μM Triclabendazole (0.1% DMSO, as positive control, labelled “Tbz” (Comp. 3). After 72 hrs, all NEJs were scored for phenotype and motility metrics. For each treatment, an average of both phenotype and motility score was calculated based on the individual parasite scores (across two independent replicates), wherein a higher score indicates lower worm activity. SD is reported on the bar chart.

[5] = test system: E. coli ATCC 25922; assay: In vitro antibacterial activity; format: cell-based; conditions: Escherichia coli, ATCC25922
[6] = test system: S. aureus ATCC 29213; assay: In vitro antibacterial activity; format: cell-based; conditions: Staphylococcus aureus, ATCC29213
[7] = test system: M. smegmatis mc^2 15 ATCC 700084; assay: In vitro antibacterial activity; format: cell-based, Mycobacterium smegmatis; conditions: Mycolicibacterium smegmatis, ATCC700084
[8] = test system: MRSA USA 300; assay: In vitro antibacterial activity; format: cell-based; conditions: Staphylococcus aureus
[9] = test system: MRSA ATCC 33591; assay: In vitro antibacterial activity; format: cell-based; conditions: Staphylococcus aureus
[10] = test system: MRSA EM RSA; assay: In vitro antibacterial activity; format: cell-based; conditions: Staphylococcus aureus
Text: (§1) In vitro Determination of Antibacterial Activity
(§2) Scientific Reports 8 (1), 2018. Bacterial strains of Enterococcus faecalis—ATCC 29212, NCTC 12201, ATCC 51299; Streptococcus pneumoniae—ATCC 49619, 18778, 21394, 21395; Haemophilus influenza—ATCC 49766, 18391, 17428; Staphylococcus aureus—NCTC 12493, ATCC BAA-077, ATCC 700698, 11051; used for testing the compounds, as previously described in “Clinical laboratory testing and in vitro diagnostics test systems—Susceptibility testing of infectious agents and evaluation of performance of antimicrobial susceptibility devices—Part 1: Reference methods for testing the in vitro activity of antimicrobial agentes against bacteria involved in infectious diseases, ISO/FDIS 20776-1:2006(E). All the procedures were carried out in a biosafety containment level 2.

[11] = test system: Pseudomonas aeruginosa ATCC 27853; assay: In vitro antibacterial activity; format: cell-based; conditions: Pseudomonas aeruginosa, ATCC27853
[12] = test system: S. epidermidis NTCT11077; assay: In vitro antibacterial activity; format: cell-based; conditions: Staphylococcus epidermidis, NTCT11077
[13] = test system: B. cereus; assay: In vitro antibacterial activity; format: cell-based; conditions: Bacillus cereus; B. cereus; read-out: MIC90
[14] = test system: Enterococcus faecalis ATCC 29212; assay: Antibacterial MIC (ISO 20776-1); format: cell-based; conditions: Enterococcus faecalis, ATCC29212
Text: as §1, §2

[15] = test system: Enterococcus faecalis ATCC 51299; assay: Antibacterial MIC (ISO 20776-1); format: cell-based; conditions: ATCC51299; Enterococcus faecalis ATCC 51299, Vancomycin resistance, vanB
Text: as §1, §2

[16] = test system: Enterococcus faecalis NCTC 12201; assay: Antibacterial MIC (ISO 20776-1); format: cell-based; conditions: NCTC12201; Enterococcus faecalis NCTC 12201, Vancomycin resistance, vanA
Text: as §1, §2

[17] = test system: Haemophilus influenzae 17428; assay: Antibacterial MIC (ISO 20776-1); format: cell-based; conditions: Haemophilus influenzae 17428, Ampicillin resistance, PBP
Text: as §1, §2

[18] = test system: Haemophilus influenzae 18391; assay: Antibacterial MIC (ISO 20776-1); format: cell-based; conditions: Haemophilus influenzae 18391, AMP/COA resistance, PBP/β-lactamase
Text: as §1, §2

[19] = test system: Haemophilus influenzae ATCC 49766; assay: Antibacterial MIC (ISO 20776-1); format: cell-based; conditions: ATCC49766
Text: as §1, §2

[20] = test system: Staphylococcus aureus 11051; assay: Antibacterial MIC (ISO 20776-1); format: cell-based; conditions: Staphylococcus aureus, 11051
Text: as §1, §2

[21] = test system: Staphylococcus aureus ATCC 700698; assay: Antibacterial MIC (ISO 20776-1); format: cell-based; conditions: ATCC700698; Staphylococcus aureus ATCC 700698, Vancomycin resistance, hVISA; read-out: MIC
Text: as §1, §2

[22] = test system: Staphylococcus aureus ATCC BAA-977; assay: Antibacterial MIC (ISO 20776-1); format: cell-based; conditions: Staphylococcus aureus, ATCCBAA977
Text: as §1, §2

[23] = test system: Staphylococcus aureus NCTC 12493; assay: Antibacterial MIC (ISO 20776-1); format: cell-based; conditions: Staphylococcus aureus, NCTC12493
Text: as §1, §2

[24] = test system: Streptococcus pneumoniae 18778; assay: Antibacterial MIC (ISO 20776-1); format: cell-based; conditions: Streptococcus pneumoniae, 18778
Text: as §1, §2

[25] = test system: Streptococcus pneumoniae 21394; assay: Antibacterial MIC (ISO 20776-1); format: cell-based; conditions: Streptococcus pneumoniae, 21394
Text: as §1, §2

[26] = test system: Streptococcus pneumoniae 21395; assay: Antibacterial MIC (ISO 20776-1); format: cell-based; conditions: Streptococcus pneumoniae, 21395
Text: as §1, §2

[27] = test system: Streptococcus pneumoniae ATCC 49619; assay: Antibacterial MIC (ISO 20776-1); format: cell-based; conditions: Streptococcus pneumoniae, ATCC49619
Text: as §1, §2

[28] = schistosomula, 72 hour culture, read-out: EC50 Motility
[29] = schistosomula, 72 hour culture, read-out: EC50 Phenotype

O=[N+]([O-])c1ccc2nc(Nc3cc(F)cc(C(F)(F)F)c3)c(Nc3cc(F)cc(C(F)(F)F)c3)nc2c1 [Compound 8, N^2, N^3-bis(3-fluoro-5-(trifluoromethyl)phenyl)-6-nitroquinoxaline-2,3-diamine]
Selectivity Index Schistosomula [1]: 25 | pEC50 [1, 28]: 6.37 | pEC50 [1, 29]: 6.43 | Selectivity Index Adult ([2]; HepG2 CC50 over adult worm EC50): 1549 | pEC50 ([2]; Schistosoma mansoni, adult worms): 8.19 | global H3K4 methylation compared to the negative control (DMSO) [3]: significant % decrease

O=C(Nc1ccc2nc(Nc3ccc(Cl)c(Cl)c3)c(Nc3ccc(Cl)c(Cl)c3)nc2c1)c1ccco1 [Compound 19, N-(2,3-bis((3,4-dichlorophenyl)amino)quinoxalin-6-yl)furan-2-carboxamide]
Selectivity Index Schistosomula [1]: 8 | pEC50 ([1]; average of phenotype and motility, read-out: EC50 Schistosomula average): 5.71 | pEC50 [1, 28]: 5.88 | pEC50 [1, 29]: 5.60 | Motility (M) Mean score [4]: 3.36 | Phenotype (P) Mean score [4]: 3.40 | MIC90 [5]: > 125 µg/mL | MIC90 [6]: 31.2 µg/mL (≈ 55.9 µM) | MIC90 [7]: > 125 µg/mL | MIC90 [8]: 62.5 µg/mL (≈ 112 µM) | MIC90 [9]: 15.6 µg/mL (≈ 27.9 µM) | MIC90 [10]: 62.5 µg/mL (≈ 112 µM) | MIC90 [11]: > 125 µg/mL | MIC90 [12]: 125 µg/mL (≈ 224 µM) | MIC90 [13]: < 62.5 µg/mL | MIC [14]: 4 µg/mL (≈ 7.15 µM) | MIC [15]: 2 µg/mL (≈ 3.58 µM) | MIC [16]: 0.25 µg/mL (≈ 0.447 µM) | MIC [17]: 64 µg/mL (≈ 114 µM) | MIC [18]: 64 µg/mL (≈ 114 µM) | MIC [19]: 64 µg/mL (≈ 114 µM) | MIC [20]: 8 µg/mL (≈ 14.3 µM) | MIC [21]: 8 µg/mL (≈ 14.3 µM) | MIC [22]: 8 µg/mL (≈ 14.3 µM) | MIC [23]: 1 µg/mL (≈ 1.79 µM) | MIC [24]: 8 µg/mL (≈ 14.3 µM) | MIC [25]: 8 µg/mL (≈ 14.3 µM) | MIC [26]: 8 µg/mL (≈ 14.3 µM) | MIC [27]: 8 µg/mL (≈ 14.3 µM)
